From patent US20240425479A1, “HALO-SUBSTITUTED AMINO AZA-HETEROARYL COMPOUNDS AS INHIBITORS OF THE HAEMATOPOIETIC PROGENITOR KINASE 1 (HPK1)” (priority 2021, published 2024)

What was measured:
[1] = biological target: T1, Recombinant (1-346) HPK1 (h) (Homo sapiens, UniProt Q92918); test: HPK1 human STE kinase enzymatic radiometric assay; type: biochemical; details: read-out: HPK1 IC50 nM Range
T1 construct: Recombinant (1-346) HPK1 (h) is incubated with 8 mM MOPS pH 7.0
T1 sequence (Q92918 1-346): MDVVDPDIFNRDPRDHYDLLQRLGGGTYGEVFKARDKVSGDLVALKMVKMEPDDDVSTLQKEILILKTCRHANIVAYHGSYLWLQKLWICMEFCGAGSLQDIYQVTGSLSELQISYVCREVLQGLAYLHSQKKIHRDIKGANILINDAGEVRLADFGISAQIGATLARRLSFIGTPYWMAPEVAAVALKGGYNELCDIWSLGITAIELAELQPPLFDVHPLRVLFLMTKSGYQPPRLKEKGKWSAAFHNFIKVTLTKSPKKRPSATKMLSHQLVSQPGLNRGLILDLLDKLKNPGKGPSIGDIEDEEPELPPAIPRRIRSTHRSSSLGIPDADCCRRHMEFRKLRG
Outline: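 Recombinant HPK1 (1-346) incubated 40 min at RT with 0.33 mg/mL myelin basic protein and [gamma-33P]-ATP in 8 mM MOPS pH 7.0, 0.2 mM EDTA, 10 mM Mg acetate; reaction started with Mg/ATP. Stopped with 0.5% phosphoric acid, spotted on P30 filtermat, washed, scintillation counted. Compounds tested as 9-point 3-fold dilutions.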

[2] = biological target: Lck (h) (Homo sapiens, UniProt P06239); test: Lck human STE kinase enzymatic radiometric assay; type: biochemical; details: read-out: Lck IC50 nM Range
Lck (h), sequence (P06239 whole entry): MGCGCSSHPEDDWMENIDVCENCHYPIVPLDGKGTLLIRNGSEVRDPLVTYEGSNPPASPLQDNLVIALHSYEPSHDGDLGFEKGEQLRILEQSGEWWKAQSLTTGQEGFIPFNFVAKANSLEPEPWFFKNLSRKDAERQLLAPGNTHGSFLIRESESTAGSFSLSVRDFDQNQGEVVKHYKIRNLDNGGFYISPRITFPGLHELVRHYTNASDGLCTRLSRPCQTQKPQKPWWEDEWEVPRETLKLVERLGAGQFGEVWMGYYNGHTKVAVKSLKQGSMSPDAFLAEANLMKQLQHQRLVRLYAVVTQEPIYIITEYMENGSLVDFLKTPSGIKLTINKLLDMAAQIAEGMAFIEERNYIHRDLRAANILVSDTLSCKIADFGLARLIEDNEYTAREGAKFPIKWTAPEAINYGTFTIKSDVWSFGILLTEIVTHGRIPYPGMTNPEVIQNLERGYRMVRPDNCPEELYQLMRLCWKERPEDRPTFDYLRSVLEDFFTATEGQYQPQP

SMILES	IC50 [1] [nM]	IC50 [2] [nM]
Cc1[nH]c(=O)c2c(F)cc(-c3nc(-c4ccc(C5CCOCC5)c(CN(C)C)c4)c(F)nc3N)cc2c1F [Example I-117, 6-(3-amino-6-(3-((dimethylamino)methyl)-4-(tetrahydro-2H-pyran-4-yl)phenyl)-5-fluoropyrazin-2-yl)-4,8-difluoro-3-methylisoquinolin-1(2H)-one]	0.1 to 10	> 1000
CN(C)Cc1cc(-c2nc(-c3cc(F)c4c(=O)[nH]cc(F)c4c3)c(N)nc2F)ccc1C1CCOCC1 [Example I-121, 6-(3-amino-6-(3-((dimethylamino)methyl)-4-(tetrahydro-2H-pyran-4-yl)phenyl)-5-fluoropyrazin-2-yl)-4,8-difluoroisoquinolin-1(2H)-one]	0.1 to 10	> 1000
COC1CCN(Cc2cc(-c3nc(-c4ccc5c(c4)CCNC5=O)c(N)nc3F)ccc2N2CCOCC2)C1 (centres unmarked) [Example I-133, 6-(3-amino-5-fluoro-6-(3-((3-methoxypyrrolidin-1-yl)methyl)-4-morpholinophenyl)pyrazin-2-yl)-3,4-dihydroisoquinolin-1(2H)-one]	0.1 to 10	> 1000
CN(C)Cc1cc(-c2nc(-c3cc4c(F)c[nH]c(=O)c4cc3F)c(N)nc2F)ccc1N1CCOCC1 [Example I-142, 6-(3-amino-6-(3-((dimethylamino)methyl)-4-morpholinophenyl)-5-fluoropyrazin-2-yl)-4,7-difluoroisoquinolin-1(2H)-one]	0.1 to 10	> 1000
Nc1nc(F)c(-c2ccc(N3CCOCC3)c(CN3CCC3)c2)nc1-c1cc2c(cc1F)C(=O)NCC2 [Example I-145, 6-(3-amino-6-(3-(azetidin-1-ylmethyl)-4-morpholinophenyl)-5-fluoropyrazin-2-yl)-7-fluoro-3,4-dihydroisoquinolin-1(2H)-one]	0.1 to 10	> 1000
Nc1nc(F)c(-c2ccc(N3CCOCC3)c(CN3CCC3)c2)nc1-c1cc(F)c2c(c1)CCNC2=O [Example I-146, 6-(3-amino-6-(3-(azetidin-1-ylmethyl)-4-morpholinophenyl)-5-fluoropyrazin-2-yl)-8-fluoro-3,4-dihydroisoquinolin-1(2H)-one]	0.1 to 10	> 1000
Nc1nc(F)c(-c2ccc(C3CCOCC3)c(CN3CCCC3)c2)nc1-c1cc2c(cc1F)C(=O)NCC2 [Example I-148, 6-(3-amino-5-fluoro-6-(3-(pyrrolidin-1-ylmethyl)-4-(tetrahydro-2H-pyran-4-yl)phenyl)pyrazin-2-yl)-7-fluoro-3,4-dihydroisoquinolin-1(2H)-one]	0.1 to 10	> 1000
CN(C)Cc1cc(-c2nc(-c3ccc4c(=O)[nH]cc(Cl)c4c3)c(N)nc2F)ccc1C1CCOCC1 [Example I-154, 6-(3-amino-6-(3-((dimethylamino)methyl)-4-(tetrahydro-2H-pyran-4-yl)phenyl)-5-fluoropyrazin-2-yl)-4-chloroisoquinolin-1(2H)-one]	0.1 to 10	> 1000
CCN(C)Cc1cc(-c2nc(-c3cc4c(cc3F)C(=O)NCC4)c(N)nc2F)ccc1C1CCOCC1 [Example I-164, 6-(3-amino-6-(3-((ethyl(methyl)amino)methyl)-4-(tetrahydro-2H-pyran-4-yl)phenyl)-5-fluoropyrazin-2-yl)-7-fluoro-3,4-dihydroisoquinolin-1(2H)-one]	0.1 to 10	> 1000
CCN(C)Cc1cc(-c2nc(-c3cc(F)c4c(c3)CCNC4=O)c(N)nc2F)ccc1C1CCOCC1 [Example I-165, 6-(3-amino-6-(3-((ethyl(methyl)amino)methyl)-4-(tetrahydro-2H-pyran-4-yl)phenyl)-5-fluoropyrazin-2-yl)-8-fluoro-3,4-dihydroisoquinolin-1(2H)-one]	0.1 to 10	> 1000
Nc1nc(F)c(-c2ccc(C3CCOCC3)c(CN3CCC3)c2)nc1-c1cc2c(cc1F)C(=O)NCC2 [Example I-170, 6-(3-amino-6-(3-(azetidin-1-ylmethyl)-4-(tetrahydro-2H-pyran-4-yl)phenyl)-5-fluoropyrazin-2-yl)-7-fluoro-3,4-dihydroisoquinolin-1(2H)-one]	0.1 to 10	> 1000
Nc1nc(F)c(-c2ccc(C3CCOCC3)c(CN3CCC3)c2)nc1-c1cc(F)c2c(c1)CCNC2=O [Example I-171, 6-(3-amino-6-(3-(azetidin-1-ylmethyl)-4-(tetrahydro-2H-pyran-4-yl)phenyl)-5-fluoropyrazin-2-yl)-8-fluoro-3,4-dihydroisoquinolin-1(2H)-one]	0.1 to 10	101 to 1000
C[C@@H]1CN(c2ccc(-c3nc(-c4ccc5c(c4)CCNC5=O)c(N)nc3F)cc2CN(C)C)CCO1 [Example I-172, (R)-6-(3-amino-6-(3-((dimethylamino)methyl)-4-(2-methylmorpholino)phenyl)-5-fluoropyrazin-2-yl)-3,4-dihydroisoquinolin-1(2H)-one]	0.1 to 10	> 1000

Continued, values first:

IC50 [1] [nM]	IC50 [2] [nM]	SMILES
0.1 to 10	101 to 1000	C[C@@H]1CN(c2ccc(-c3nc(-c4cc5c(cc4F)C(=O)NCC5)c(N)nc3F)cc2CN(C)C)CCO1 [Example I-173, (R)-6-(3-amino-6-(3-((dimethylamino)methyl)-4-(2-methylmorpholino)phenyl)-5-fluoropyrazin-2-yl)-7-fluoro-3,4-dihydroisoquinolin-1(2H)-one]
0.1 to 10	> 1000	CN(C)Cc1cc(-c2nc(-c3ccc4c(c3)C(F)(F)CNC4=O)c(N)nc2F)ccc1C1CCOCC1 [Example I-223, 6-(3-amino-6-(3-((dimethylamino)methyl)-4-(tetrahydro-2H-pyran-4-yl)phenyl)-5-fluoropyrazin-2-yl)-4,4-difluoro-3,4-dihydroisoquinolin-1(2H)-one]
0.1 to 10	> 1000	CCN(C)Cc1cc(-c2nc(-c3ccc4c(=O)[nH]cc(F)c4c3)c(N)nc2F)ccc1C1CCOCC1 [Example I-238, 6-(3-amino-6-(3-((ethyl(methyl)amino)methyl)-4-(tetrahydro-2H-pyran-4-yl)phenyl)-5-fluoropyrazin-2-yl)-4-fluoroisoquinolin-1(2H)-one]
0.1 to 10	> 1000	C[C@@H]1CN(c2ccc(-c3nc(-c4ccc5c(c4)C(F)(F)CNC5=O)c(N)nc3F)cc2CN(C)C)C[C@H](C)O1 [Example I-257, 6-(3-amino-6-(3-((dimethylamino)methyl)-4-((2R,6S)-2,6-dimethylmorpholino)phenyl)-5-fluoropyrazin-2-yl)-4,4-difluoro-3,4-dihydroisoquinolin-1(2H)-one]
0.1 to 10	> 1000	COc1ccc(-c2nc(-c3ccc4c(=O)[nH]cc(F)c4c3)c(N)nc2F)cc1CN(C)C [Example I-267, 6-(3-amino-6-(3-((dimethylamino)methyl)-4-methoxyphenyl)-5-fluoropyrazin-2-yl)-4-fluoroisoquinolin-1(2H)-one]
11 to 100	> 1000	CC(C)S(=O)(=O)c1ccc(-c2nc(-c3ccc4c(=O)[nH]cc(F)c4c3)c(N)nc2F)cc1CN(C)C [Example I-293, 6-(3-amino-6-(3-((dimethylamino)methyl)-4-(isopropylsulfonyl)phenyl)-5-fluoropyrazin-2-yl)-4-fluoroisoquinolin-1(2H)-one]
